Converted amounts (≈) assume the structure as drawn. Where a name gives a salt, the structure may show the parent alone. Read-outs that look alike come from different tables or passages of the source.
Assays:
[1] = tested on: Mycoplasma hyopneumoniae ST-11 (standard strain); test: Anti-mycoplasma activity in vitro (MIC, broth dilution), strain ST-11; type: cell-based; conditions: Mh ST-11
How it was run: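 MIC by broth dilution in Hanks' solution with 0.5% lactoalbumin, yeast, equine serum and phenol red, pH 7.4-7.6. Inoculum: 3-4-day culture, turned yellow, diluted 10-fold in broth (subcultured first if yellowing took over 4 days).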

[2] = Acute toxicity test in chickens; type: in vivo, SPF chickens of layer type; conditions: 400 mg/kg or 200 mg/kg once oral, 2 weeks; for increase of weight: vs control group
Procedure: Acute toxicity tests on tropolone L-lysine salt and O-acetyltropolone were performed according to the following method.
The tests had been done on 15 days old SPF chickens of layer type (5 males and 5 females) for 2 weeks. The above two compounds suspended in 5% gum arabic are orally and forcibly administered once at a dose of 400 mg/kg or 200 mg/kg. To a control group is administered 5% gum arabic.

[3] = tested on: Mycoplasma gallisepticum S6 (standard strain); test: Anti-mycoplasma activity in vitro (MIC, broth dilution), strain S6; type: cell-based; conditions: Mg S6, 37° C., 7 days
How it was run: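 Chick PPLO broth with 20% equine serum; 2-fold serial agent dilutions inoculated with culture diluted to 10^6 CCU/ml (inoculum concentration before addition). Incubated 7 days at 37 °C; MIC by broth dilution.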

[4] = tested on: Mycoplasma gallisepticum MR-1 (wild strain, tylosin-resistant); test: Anti-mycoplasma activity in vitro (MIC, broth dilution), strain MR-1; type: cell-based; conditions: Mg MR-1, 37° C., 7 days
How it was run: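 Broth dilution in chick PPLO broth with 20% equine serum; 2-fold compound dilutions, inoculum diluted to 10^6 CCU/ml. Incubated 7 days at 37 °C; MIC recorded.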

[5] = tested on: Mycoplasma gallisepticum T-7-T (wild strain, tylosin-resistant); test: Anti-mycoplasma activity in vitro (MIC, broth dilution), strain T-7-T; type: cell-based; conditions: Mg T-7-T, 37° C., 7 days
How it was run: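 Broth dilution MIC in chick PPLO broth with 20% equine serum, using 2-fold agent dilutions. Inoculum of 24-48 h culture diluted to 10^6 CCU/ml before use. Incubated 7 days at 37° C.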

[6] = tested on: Mycoplasma gallisepticum T-7-T (wild strain, tylosin-resistant); test: Mycoplasma gallisepticum air-sac infection method in chicken, strain T-7-T;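 on Index of Isolation: index = (P×1 + Q×2 + R×3)/S with range 0 to 6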; type: in vivo, Mycoplasma gallisepticum; SPF chicken (white leghorn); conditions: 100 mg/kg × once oral, 10 mg/ml sol. b; for Change of air-sac, left: + (chickens) / Change of air-sac, left: ++ (chickens) / Change of air-sac, left: +++ (chickens) / Change of air-sac, left: - (chickens) / Change of air-sac, right: + (chickens) / Change of air-sac, right: ++ (chickens) / Change of air-sac, right: +++ (chickens) / Change of air-sac, right: - (chickens) / Isolation, L (left air-sac) / Isolation, R (right air-sac) / Isolation, T (trachea) / Mycoplasma Isolated Chickens: inoculum 10^2; for Index of Isolation: inoculum 10^2, range 0-6.0; for Index of Disease: inoculum 10^2, range 0-9.0
Procedure: (2) Test of Effectiveness Mycoplasma gallisepticum air-sac infection method
T-7-T (wild strain, tylosin-resistant)
Inoculation: To the right air-sac of 9 days old SPF chicken (a white leghorn) which has abstained from water and feed one day before is inoculated 0.20-0.25 ml/chicken of fresh mycoplasma culture incubated for 24-48 hr and diluted with broth (usually 100 times). The concentration in Table 2 is shown in a unit of mg/ml.
Medium: Chick PPLO broth supplemented with 15% equine serum (Eiken Kagaku Co., Ltd.)
Administration: A compound of this invention dissolved or suspended in the following solution is orally and forcibly administered once by a cannula immediately after the infection.
Anatomization and Isolation of Microorganism: The chickens are anatomized 5 days after the infection, and the right and left air sacs are investigated whether they are attacked with a disease or not. The change caused by the disease is represented in four degrees; -: no change, +: slight, ++: medium and +++: serious. Microorganism is isolated from the right and left air-sacs and the trachea by using a sterilized applicator.
Judgement: Judgement is done through an index of an air-sac disease and an index of a microorganism-isolation.
Index of an air-sac-disease: First, indexes in the right and left air-sacs are separately calculated according to the following formula;
{degree of disease (0-3)×chickens}/anatomized chickens
and the index is calculated by the following formula;
(index of right air-sac)×1+(index of left air-sac)×2
Index of a microorganism isolation:
P: chickens from the right air-sac of which microorganism is isolated,
Q: chickens from the trachea of which microorganism is isolated,
R: chickens from the left air-sac of which microorganism is isolated, and
S: chickens investigated.

[7] = tested on: Mycoplasma gallisepticum S6 (standard strain); test: Mycoplasma gallisepticum air-sac infection method in chicken, strain S6; type: in vivo, Mycoplasma gallisepticum; SPF chicken (white leghorn)
How it was run: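 Right air sac of 9-day-old SPF white leghorn chickens (water/feed withheld 1 day) inoculated with 24-48 h culture diluted ~100×; compound given once orally by cannula right after infection. At day 5, air-sac lesions scored 0-3 (index = right + 2×left), and organisms isolated from both air sacs and trachea.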

[8] = 100 mg/kg × once oral, 10 mg/ml sol. b, inoculum 1.2 × 10^6
[9] = 100 mg/kg × once oral, 10 mg/ml sol. b, inoculum 1.2 × 10^6, range 0-6.0
[10] = 100 mg/kg × once oral, 10 mg/ml sol. b, inoculum 1.2 × 10^6, range 0-9.0
[11] = 200 mg/kg × once oral, 20 mg/ml sol. b, inoculum 1.18 × 10^6
[12] = Mycoplasmoides gallisepticum, 168 h, read-out: MIC
[13] = 200 mg/kg × once oral, 20 mg/ml sol. c, inoculum 6.3 × 10^4

O=c1cccccc1O [Compound 11, Tropolone L-lysine salt]
MIC [1]: 0.78 µg/mL
deaths [2]: none of chickens died
increase of weight [2]: equal to the control group
MIC [3]: 0.39 µg/mL
MIC [4]: 0.78 µg/mL
MIC [5]: 0.78 µg/mL
Change of air-sac, left: + (chickens) [6]: 0
Change of air-sac, left: ++ (chickens) [6]: 0
Change of air-sac, left: +++ (chickens) [6]: 0
Change of air-sac, left: - (chickens) [6]: 8
Change of air-sac, right: + (chickens) [6]: 0
Change of air-sac, right: ++ (chickens) [6]: 0
Change of air-sac, right: +++ (chickens) [6]: 0
Change of air-sac, right: - (chickens) [6]: 8
Isolation, L (left air-sac) [6]: 1
Isolation, R (right air-sac) [6]: 4
Isolation, T (trachea) [6]: 5
Mycoplasma Isolated Chickens [6]: 5
Index of Isolation [6]: 2.90
Index of Disease [6]: 0
Change of air-sac, left: + (chickens) [7, 8]: 0
Change of air-sac, left: ++ (chickens) [7, 8]: 0
Change of air-sac, left: +++ (chickens) [7, 8]: 0
Change of air-sac, left: - (chickens) [7, 8]: 8
Change of air-sac, right: + (chickens) [7, 8]: 0
Change of air-sac, right: ++ (chickens) [7, 8]: 0
Change of air-sac, right: +++ (chickens) [7, 8]: 0
Change of air-sac, right: - (chickens) [7, 8]: 8
Isolation, L (left air-sac) [7, 8]: 2
Isolation, R (right air-sac) [7, 8]: 0
Isolation, T (trachea) [7, 8]: 1
Mycoplasma Isolated Chickens [7, 8]: 2
Index of Isolation [7, 9]: 0.54
Index of Disease [7, 10]: 0
Change of air-sac, left: + (chickens) [7, 11]: 0
Change of air-sac, left: ++ (chickens) [7, 11]: 0
Change of air-sac, left: +++ (chickens) [7, 11]: 0
Change of air-sac, left: - (chickens) [7, 11]: 5
Change of air-sac, right: + (chickens) [7, 11]: 0
Change of air-sac, right: ++ (chickens) [7, 11]: 0
Change of air-sac, right: +++ (chickens) [7, 11]: 0
Change of air-sac, right: - (chickens) [7, 11]: 5
Isolation, L (left air-sac) [7, 11]: 0
Isolation, R (right air-sac) [7, 11]: 4
Isolation, T (trachea) [7, 11]: 0
Mycoplasma Isolated Chickens [7, 11]: 4
Index of Isolation ([7]; 200 mg/kg × once oral, 20 mg/ml sol. b, inoculum 1.18 × 10^6, range 0-6.0): 0.8
Index of Disease ([7]; 200 mg/kg × once oral, 20 mg/ml sol. b, inoculum 1.18 × 10^6, range 0-9.0): 0

CC(=O)Oc1cccccc1=O [Compound 13, O-Acetyltropolone]
deaths [2]: none of chickens died
increase of weight [2]: a little inferior to the control-group
MIC [3, 12]: 0.39 µg/mL (≈ 2.38 µM)
MIC [4, 12]: 0.78 µg/mL (≈ 4.75 µM)
MIC [5, 12]: 0.78 µg/mL (≈ 4.75 µM)
Change of air-sac, left: + (chickens) [6]: 0
Change of air-sac, left: ++ (chickens) [6]: 0
Change of air-sac, left: +++ (chickens) [6]: 0
Change of air-sac, left: - (chickens) [6]: 8
Change of air-sac, right: + (chickens) [6]: 0
Change of air-sac, right: ++ (chickens) [6]: 0
Change of air-sac, right: +++ (chickens) [6]: 0
Change of air-sac, right: - (chickens) [6]: 8
Isolation, L (left air-sac) [6]: 1
Isolation, R (right air-sac) [6]: 1
Isolation, T (trachea) [6]: 2
Mycoplasma Isolated Chickens [6]: 2
Index of Isolation [6]: 0.90
Index of Disease [6]: 0
Change of air-sac, left: + (chickens) [7, 8]: 0
Change of air-sac, left: ++ (chickens) [7, 8]: 0
Change of air-sac, left: +++ (chickens) [7, 8]: 0
Change of air-sac, left: - (chickens) [7, 8]: 8
Change of air-sac, right: + (chickens) [7, 8]: 1
Change of air-sac, right: ++ (chickens) [7, 8]: 0
Change of air-sac, right: +++ (chickens) [7, 8]: 0
Change of air-sac, right: - (chickens) [7, 8]: 7
Isolation, L (left air-sac) [7, 8]: 2
Isolation, R (right air-sac) [7, 8]: 2
Isolation, T (trachea) [7, 8]: 3
Mycoplasma Isolated Chickens [7, 8]: 3
Index of Isolation [7, 9]: 1.75
Index of Disease [7, 10]: 0.1
Change of air-sac, left: + (chickens) [7, 13]: 0
Change of air-sac, left: ++ (chickens) [7, 13]: 0
Change of air-sac, left: +++ (chickens) [7, 13]: 0
Change of air-sac, left: - (chickens) [7, 13]: 5
Change of air-sac, right: + (chickens) [7, 13]: 0
Change of air-sac, right: ++ (chickens) [7, 13]: 0
Change of air-sac, right: +++ (chickens) [7, 13]: 0
Change of air-sac, right: - (chickens) [7, 13]: 5
Isolation, L (left air-sac) [7, 13]: 0
Isolation, R (right air-sac) [7, 13]: 0
Mycoplasma Isolated Chickens [7, 13]: 0
Index of Disease ([7]; 200 mg/kg × once oral, 20 mg/ml sol. c, inoculum 6.3 × 10^4, range 0-9.0): 0
Index of Isolation ([7]; 200 mg/kg × once oral, 20 mg/ml sol. c, inoculum 6.3 × 10^4, trachea ND, range 0-6.0): 0

— patent US4950686A, “Anti-mycoplasma agent” (Shionogi & Co., Ltd., priority 1986, dated 1990)
